The results in this text go back to US7956083B2, “Compounds” (Glaxo Group Limited, priority 2008, dated 2011).

The target of the assay is human ER beta (Homo sapiens, UniProt Q92731). In words: ER beta FP binding assay (fluorescence polarisation, Fluormone EL Red ligand). The note with it: 6 nM ERbeta protein, 1.5 nM ER FP ligand, 3 hours at room temperature; read-out: pIC50 in the ER beta FP binding assay (converted). The protocol: Assay Buffer (AB) (50 mM MOPES pH 7.5, 50 mM NaF, 2.5 mM CHAPs), in deionized water, 5 mM 1,4 dithiothreitol (DTT) added on day of the experiment. The appropriate amount of AB was placed in a plastic tube, adding solid DTT before the assay was run. AB with DTT was distributed to plastic tubes. We have found use of plastic to be important vs glass. A final concentration of 6 nM ERbeta protein was added to the tube followed by gentle inversion. A final concentration of 1.5 nM ER FP ligand (Fluormone™ EL Red 200 nM in 20 mM Tris, 90% Methanol purchased from Invitrogen catalogue no P3030) was added to the same tube followed by gentle inversion. This was allowed to sit for 5-10 minutes before adding it to the 384 assay plate. Similar protocol was used for ERalpha with a final concentration of 4 nM ERalpha and 1.5 nM ER FP ligand.
human ER beta, sequence (Q92731 with tags, fused parts or gaps): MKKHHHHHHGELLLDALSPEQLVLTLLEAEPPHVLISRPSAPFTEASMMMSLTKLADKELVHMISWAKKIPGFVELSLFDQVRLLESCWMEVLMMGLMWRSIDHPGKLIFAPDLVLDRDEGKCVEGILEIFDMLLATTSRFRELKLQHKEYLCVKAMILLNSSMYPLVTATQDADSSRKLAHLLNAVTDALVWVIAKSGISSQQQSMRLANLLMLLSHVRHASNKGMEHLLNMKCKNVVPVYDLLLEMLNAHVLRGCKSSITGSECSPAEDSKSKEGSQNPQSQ
384 plates containing test compounds dissolved in 100% DMSO at 1 mM were serially diluted (1:3) by a Beckman FX. Serial diluted test compounds were added, 0.1 μL, to the assay plates with a maximum final concentration of 10 uM. Once the assay plates were ready, 10 μL of the above reagents were added to the appropriate set of plates with the Thermo combi. These plates were then sealed and place at room temperature for 3 hours.
The plates were then placed on the Molecular Devices Analyst and counted (excitation 535 nm, emission 590 nm with a 561 Dichroic mirror). Data was normalized to control then fitted to a non-linear least squares algorithm (see below).
pIC50 Calculation y=a+((b−a)/(1+(10^x/10^c){circumflex over (0)}d)
The amino acid sequence of human ER beta used in this assay is […]
As to `Oc1ccc(-n2ccc3c(O)c(F)cc(Br)c32)cc1F` [Example 4, 7-bromo-5-fluoro-1-(3-fluoro-4-hydroxyphenyl)-1H-indol-4-ol], the IC50 is less than 10 nM. Under `Oc1ccc(-n2ccc3c(O)c(F)ccc32)cc1F` [Example 5, 5-fluoro-1-(3-fluoro-4-hydroxyphenyl)-1H-indol-4-ol] stands less than 10 nM; under `Oc1ccc(-n2ccc3c(O)ccc(Cl)c32)cc1F` [Example 7, 7-Chloro-1-(3-fluoro-4-hydroxyphenyl)-1H-indol-4-ol], less than 10 nM; under `N#Cc1cc(O)c2ccn(-c3ccc(O)c(F)c3)c2c1` [Example 8, 1-(3-Fluoro-4-hydroxyphenyl)-4-hydroxy-1H-indole-6-carbonitrile], less than 10 nM. Consider `Oc1ccc(-n2ccc3c(O)cc(F)cc32)cc1F` [Example 9, 6-Fluoro-1-(3-fluoro-4-hydroxyphenyl)-1H-indol-4-ol], for which the IC50 was less than 10 nM.

Regarding `Oc1ccc(-n2ccc3c(O)cc(F)cc32)cc1` [Example 10, 6-fluoro-1-(4-hydroxyphenyl)-1H-indol-4-ol], the IC50 is less than 10 nM.
